Source: patent US9075071B1, “Methods for diagnosis and treatment of cancer” (University of Mississippi Medical Center, priority 2012, dated 2015)
Where a name gives a salt, the structure may show the parent alone. Peptide text beside a SMILES is read from it. * marks the point of attachment. Cbz = O=C(OCc1ccccc1)*

How the values were obtained:
[1] = system: SCID mice; conditions: mouse, in vivo
Description: Geminin overexpressing cells were injected subcutaneously or orthotopically (in mammary gland) in SCID mice as described above. When tumors reached 0.5-0.75 cm^3 in volume the treatments were initiated. […] Mice were treated for 5 days and were rested for 2 days and tumor size was measured daily using calipers. At the end of the experiments tumors were dissected out, weighed and fixed in formalin, and cut at 4 μm for histological and immunohistochemical analysis.

[2] = system: induced Gem9 cells (geminin overexpressing HME cells); experiment: Cell cycle progression, PI labeling and FACS; format: cell-based, human; conditions: Gem9 induced 72 h; for effect on cell cycle progression: then drug 24 h, vs DMSO, ZM447439 5 μM, Nocodazole 250 ng/ml, Taxol 10 μM
Description: (§1) Breast cancer cell lines were maintained in RPMI medium (Invitrogen, Carlsbad, Calif.) supplemented with 10% FBS and antibiotics. Maintenance of HME cells was performed as described previously. Cells were treated with 5 μM […] (Toronto Research Chemicals Inc., North York, ON), 100 ng/ml colcemid (Sigma, St. Louis, Mo.), 250 ng/ml Nocodazole (Sigma), 10 μM Taxol (Sigma). PI or FITC-conjugated anti-BrdU FACS analysis was performed as in [20]. Annexin-V was performed according to manufacturer's instructions (BD Biosciences, 556547, San Jose, Calif.).
(§2) To evaluate that in detail, HME (or Gem9−Dox) and induced (72 h) Gem9 cells were incubated with 5 μM of ZM447439 (a specific and potent inhibitor of AurB) for an additional 24 h. To measure the effect of ZM447439 on cell cycle progression aliquots from each culture were labeled with PI and analyzed by FACS.
(§3) To evaluate whether these effects were restricted to AurB inhibitors or could be seen with drugs that alter the integrity of the microtubules apparatus as well, HME and induced Gem9 cells were treated with DMSO (control), Nocodazole (a microtubules depolymerizing agent) or Taxol (a microtubules stabilizing agent) for another 24 h. […] However, both treatments also had modest effect on geminin overexpression cells (FIGS. 9C and 9D).
(§4) Low number of dying cells was detected in parental or Gem9 cells in the absence of Dox (FIGS. 13E/1 and 13E/5, 13F/1 and 13F/5 and 13G) or in HME cells in the presence of Dox (FIGS. 13E/2 and 13E/6, 13F/2 and 13F/6 and 13G). […] It was thought that degradation of geminin following c-Abl silencing or inactivation promoted cell death in geminin overexpressing and not normal cells, at least in part, because cells became addicted to high levels of geminin.

[3] = system: HME cells; experiment: Cell cycle progression, PI labeling and FACS; format: cell-based, human; conditions: for effect on cell cycle progression: normal HME cells, 24 h, vs DMSO, ZM447439 5 μM, Nocodazole 250 ng/ml, Taxol 10 μM
Description: as §1, §2, §3, §4

[4] = system: leukemia cells; conditions: cited from earlier work
[5] = system: Gem9/LT mammary tumors; experiment: Treatment of orthotopic (mammary) geminin-driven tumors in SCID mice; format: in vivo, mouse
Description: (§5) All animal experiments were approved by the University of Hawaii IACUC committee and University of Mississippi Medical Center IACUC committee. Six- to eight-week-old anaesthetized immune-compromised athymic SCID (NOD.CB17-Prkdc^scid/J, Jackson Laboratory) mice were injected with human mammary epithelial (HME) cells (5×10^6) resuspended in 200 μl of HME medium/matrigel (1:1) using a 25-gauge needle. Tumor initiation was defined as the time when tumors were 3 mm in diameter. Mice were sacrificed when the tumors grew to greater than 1.5 cm in diameter or after 12 wks of monitoring. Tumor volume was calculated with the formula 4/3πr^3 (where r is the tumor radius). At the end of the experiments tumors were dissected out, weighed and then fixed in formalin, and subsequently cut at 4 μm for histological and immunohistochemical analysis.
(§6) Tumor formation was analyzed with IVIS luciferase machine (Xenogen, Alameda, Calif.) weekly and tumor size was measured every third day by calipers. To analyze tumor formation using the in vivo system, mice were intraperitoneally injected using a 30G needle with 100 μl of D-luciferin solution (Xenogen) prepared at 15 mg/mL in PBS. […]
(§7) Geminin overexpressing cells were injected subcutaneously or orthotopically (in mammary gland) in SCID mice as described above. […] Mice were treated for 5 days and were rested for 2 days and tumor size was measured daily using calipers. […]

[6] = system: p-(S10)-H3; experiment: FITC-anti-p-H3-(S10) labeling and FACS; format: cell-based, human; conditions: imatinib 10 μM 24 h, c-Abl silencing 72 h
Text: Diminution of (S10)-H3 phosphorylation leads to chromosome condensation failure, lack of chromosome segregation and induction of aneuploidy (Giet et al., 2001). […] Aliquots of each culture were then fixed, labeled with FITC-anti-p-H3-(S10) specific antibody and analyzed by FACS.

[7] = system: Gem9/LT subcutaneous tumors; experiment: Treatment of subcutaneous geminin-driven tumors in SCID mice; format: in vivo, mouse; conditions: imatinib 50 mg/kg/day, day 12
Description: as §5, §6, §7

[8] = system: induced Gem9 cells; experiment: PI / FITC-anti-BrdU FACS, tetraploid/aneuploid cells; format: cell-based, human; conditions: Gem9 induced 72 h (approximately 35% without treatment); imatinib 10 μM last 24 h, c-Abl silencing 72 h
Description: BrdU (20 μM) was added to all cultures during the last 24 h and cultures were collected, labeled with PI and FITC-anti-BrdU antibody and analyzed by FACS.

[9] = system: induced Gem9 cells (geminin overexpressing); experiment: Metaphase chromosome spread, chromosome condensation; format: cell-based, human
Description: (§8) […] Cells were then trypsinized and washed and gently resuspended in PBS. 10 ml of 0.075M KCl was drop wise added and the cells were incubated at 37° C. (in a water bath) for 5-10 mins. Cells were then centrifuged at 900 rpm for 5 minutes and KCl was removed. 5 ml of freshly prepared fixative (3:1 Methanol/Acetic acid) was added drop wise to the cells and carefully mixed. Cells were centrifuged at 900 rpm for 5 minutes and the fixative was removed. This step was repeated 2 more times. Finally, all but 300 μl of the fixative media was removed and cells were dropped from approximately 18 inches onto an angled, humidified microscope slide. Slides were air-dry for at least 10 mins and cells were stained with propidium iodide (PI) or Giemsa.

[10] = system: induced Gem9 cells; experiment: Dying cells under light microscope and TUNEL; format: cell-based, human; conditions: Gem9 induced 96 h; imatinib 10 μM last 48 h, c-Abl silencing 96 h
Text: (§9) The Fluorescein FragEL™ DNA Fragmentation Detection kit (Calbiochem) was used according to the supplier's protocol.
as §4

[11] = system: parental HME cells; experiment: Dying cells under light microscope and TUNEL; format: cell-based, human; conditions: imatinib 10 μM last 48 h, c-Abl siRNA 96 h
Text: as §9, §4

[12] = system: geminin protein; experiment: Geminin level by western blot of sonicated extracts; format: cell-based, human
Description: To study the consequence of silencing or inactivating c-Abl on geminin overexpressing cells, experiments were first undertaken to analyze what happens to geminin protein following c-Abl silencing or inactivation. […] Another Dox treated set of cells were transfected with c-Abl dominant negative construct (i.e. K209R, see Srinivasan and Plattner, 2006) during the last 48 h. Sonicated extracts were then prepared from all cultures and geminin level was measured using western blot analysis. […] Similar effects were also observed in cells endogenously overexpressing geminin.

[13] = system: uninduced Gem9 (Gem9-Dox, HME) cells; experiment: Cell survival, PI/annexin V labeling and FACS; format: cell-based, human; conditions: 24 h, ZM447439 5 μM, Nocodazole 250 ng/ml
Description: as §1
(§10) To measure the effect on ZM447439 on cell survival, aliquots from each culture were labeled with PI/annexin V and analyzed by FACS. […] Indeed, in ZM447439 treated cells only 40±5% of the cells were PI^−/V^−, and 41±7% were PI^+/V^− and 20±6% were PI^−/V^++PI^+/V (FIG. 9B). […] Indeed, in ZM447439 treated cells 66±4% of the cells were PI^−/V^−, 24±3% were PI^+/V^− and 10±3% were PI^−/V^++PI^+/V^+ (FIG. 9E).

[14] = system: induced Gem9 (Gem9+Dox) cells; experiment: Cell survival, PI/annexin V labeling and FACS; format: cell-based, human; conditions: Gem9 induced 72 h, then drug 24 h; ZM447439 5 μM, Nocodazole 250 ng/ml
Description: as §1, §10

[15] = system: uninduced Gem9 cells; experiment: Metaphase chromosome spread, chromosome condensation; format: cell-based, human; conditions: 10 μM colcemid 1 h
Description: as §8

COc1cccc2c1C(=O)c1c(O)c3c(c(O)c1C2=O)C[C@@](O)(C(=O)CO)C[C@@H]3O[C@H]1C[C@H](N)[C@H](O)[C@H](C)O1 [doxorubicin]
toxicity to the mice [1]: adverse side effects including death

CC(=O)O[C@H]1C(=O)[C@@]2(C)[C@H]([C@H](OC(=O)c3ccccc3)[C@]3(O)C[C@H](OC(=O)[C@H](O)[C@@H](NC(=O)c4ccccc4)c4ccccc4)C(C)=C1C3(C)C)[C@]1(OC(C)=O)CO[C@@H]1C[C@@H]2O [Taxol]
effect on cell cycle progression [2]: modest effect
effect on cell cycle progression [3]: triggered accumulation of normal HME cells in G2/M phase, followed by tetraploidy and then cell death

CCN(CCCOc1ccc2c(Nc3cc(CC(=O)Nc4cccc(F)c4)n[nH]3)ncnc2c1)CCOP(=O)(O)O [AZD1152]
effect on DNA content of cells [4]: induce accumulation of cells with greater than 4N DNA content

Cc1ccc(NC(=O)c2ccc(CN3CCN(C)CC3)cc2)cc1Nc1nccc(-c2cccnc2)n1 [imatinib, imatinib mesylate]
mammary tumor size compared with no treatment ([5]; imatinib 50 mg/kg/day): 5-10 fold
killing of geminin-driven tumors (tumor size) ([5]; start at 0.5 to 0.7 cm^3, imatinib 50 mg/kg/day, doxorubicin 5 mg/kg/day, 14 days): as effective in killing geminin-driven tumors as doxorubicin
p-(S10)-H3-positive cells ([6]; induced Gem9 cells (approximately 2% without treatment)): approximately 13%
p-(S10)-H3-positive cells ([6]; parental HME cells): reduced the percentage of p(S10)-H3-positive cells
subcutaneous tumors after treatment [7]: barely detectable
cells with greater than 4N DNA content (tetraploid/aneuploid) [8]: approximately 6%
chromosome condensation ([9]; Gem9 with Dox 7 days plus colcemid, imatinib 10 μM last 24 h, c-Abl silencing last 72 h): restored chromosome condensation
effect on cell cycle (PI FACS), sub-G1 and >4N cells ([2]; imatinib 10 μM last 24 h, c-Abl silencing 72 h): induced significant increase in sub-G1 and reduced the level of >4N cells
effect on cell cycle (PI FACS) ([3]; HME cells, imatinib 10 μM last 24 h, c-Abl silencing 72 h): induced G1-arrest
number of dying cells (light microscope, TUNEL+) [10]: high number of dying cells
number of dying cells (light microscope, TUNEL+) [11]: Low level of dying cells
endogenous geminin protein level ([12]; HME cells, Dox 72 h, imatinib 10 μM last 24 h, c-Abl silencing 72 h): Significant reduction
geminin protein level ([12]; MCF7 (ER+) breast cancer cells, imatinib 10 μM or c-Abl silencing): significantly reduced the level of geminin protein
geminin protein level ([12]; MDAMB231 (ER-) breast cancer cells, imatinib 10 μM or c-Abl silencing): significantly reduced the level of geminin protein
overexpressed geminin protein level ([12]; induced Gem9 cells, Dox 72 h, imatinib 10 μM last 24 h, c-Abl silencing 72 h): Significant reduction

COc1cc2c(Nc3ccc(NC(=O)c4ccccc4)cc3)ncnc2cc1OCCCN1CCOCC1 [ZM447439]
alive cells (PI-/V-) [13]: 40±5%
apoptotic cells (PI-/V+ + PI+/V+) [13]: 20±6%
necrotic cells (PI+/V-) [13]: 41±7%
alive cells (PI-/V-) [14]: 66±4%
apoptotic cells (PI-/V+ + PI+/V+) [14]: 10±3%
necrotic cells (PI+/V-) [14]: 24±3%
effect on cell cycle progression [2]: little effect
effect on cell cycle progression [3]: triggered accumulation of normal HME cells in G2/M phase followed by tetraploidy and then cell death

CN[C@H]1CCc2cc(OC)c(OC)c(OC)c2-c2ccc(OC)c(=O)cc21 [colcemid]
chromosome condensation [15]: induced condensation
chromosome condensation ([9]; Gem9 with Dox 7 days, 10 μM colcemid 1 h): failed to condense the chromosomes

CC(C)C[C@@H](C=O)NC(=O)[C@H](CC(C)C)NC(=O)[C@H](CC(C)C)NC(=O)OCc1ccccc1 [MG132] (Cbz-Leu-Leu-Leu-aldehyde)
geminin protein level ([12]; HME as well as induced Gem9 (72 h) cells, 10 μM MG132 together with 10 μM imatinib, last 24 h): an increase instead of a decrease

COC(=O)Nc1nc2ccc(C(=O)c3cccs3)cc2[nH]1 [Nocodazole]
alive cells (PI-/V-) [13]: 75±5%
apoptotic cells (PI-/V+ + PI+/V+) [13]: 20±5%
necrotic cells (PI+/V-) [13]: 6±4%
alive cells (PI-/V-) [14]: 78±6%
apoptotic cells (PI-/V+ + PI+/V+) [14]: 10±2%
necrotic cells (PI+/V-) [14]: 12±3%
effect on cell cycle progression [2]: modest effect
effect on cell cycle progression [3]: triggered accumulation of normal HME cells in G2/M phase, followed by tetraploidy and then cell death
